From PMC12476894, “Identification of α‑Azacyclic Acetamide-Based Inhibitors of P. falciparum Na^+ Pump (PfATP4) with Fast-Killing Asexual Blood-Stage Antimalarial Activity by Phenotypic Screening” (ACS Infectious Diseases, 2025)
In brackets after ≈: the same amount, converted by molar mass. Several values for one entry are separate records, joined by “and”; a condition that tells them apart may be missing. Equal entries are not always repeated. Where two headings read alike, the source gives them in different places.

Columns and labels:
[1] = test system: P. falciparum 3D7 parasites (Pf3D7); assay: 72 h SYBR Green growth inhibition, ABS P. falciparum 3D7 (Phillips Lab); type: cell-based, Plasmodium falciparum; conditions: Plasmodium falciparum, 3D7; 72 h SYBR Green assay; mean ± SEM (n)
[2] = test system: P. falciparum Dd2 (PfDd2) parasites; assay: 72 h SYBR Green growth inhibition, ABS P. falciparum Dd2 (Phillips Lab); type: cell-based, Plasmodium falciparum; conditions: Plasmodium falciparum, DD2, 72 h, read-out: PfDd2 EC50
[3] = test system: P. falciparum NF54^luc parasites; assay: 72 h SYBR Green growth inhibition, PfNF54^luc; type: cell-based; conditions: Plasmodium falciparum, 72 h SYBR Green assay, read-out: PfNF54^luc EC50
[4] = test system: P. falciparum NF54^luc parasites; assay: Luciferase reporter (LR) / BRRoK assay, PfNF54^luc; type: cell-based, Plasmodium falciparum; conditions: Plasmodium falciparum, NF54, Hec50; luciferase reporter, 6 h
PfD10 attB = assay: 72 h SYBR Green growth inhibition, PfD10 attB; type: cell-based; conditions: Plasmodium falciparum; 72 h SYBR Green assay
PfD10 attB + yDHODH = assay: 72 h SYBR Green growth inhibition, strain expressing yeast DHODH; type: cell-based; conditions: Plasmodium falciparum, read-out: PfD10 attB + yDHODH EC50, 72 h SYBR Green assay
[5] = Human HepG2 cytotoxicity assay (CellTiter Glo); type: cell-based; conditions: HepG2 cells
in vitro = in vitro ADME; conditions: human liver microsomes, 1 µM compound, 0.4 mg/mL protein
[6] = test system: Dd2 PfATP4^P412L mutant clones; assay: 72 h SYBR Green growth inhibition, 2-selected Dd2 clones with PfATP4 P412L (Phillips Lab); type: cell-based, Plasmodium falciparum; conditions: for EC50: Plasmodium falciparum
Protocol: (§1) To confirm the MOA for the α-azacyclic acetamides against P. falciparum and to obtain potential information about whether or not they bind PfATP4 at an overlapping site with that of KAE609, we undertook resistance selections using PfDd2 parasites using the published cycling drug selection method. , α-Azacyclic acetamides 2 and 3 were chosen as representative examples of the pyrrole- and indole-based series, respectively. […] Additional cycles were performed at 20 × EC50, until resistant parasites were detected based on a fold change in EC50 compared to the parental clonal Dd2 line (Table S3). Resistant parasites were detected in the 2-selections in all 4 flasks after 4 pulses and for 3-selections in 3 flasks after 5 pulses. Clonal lines were generated from each flask, and one clone per flask was selected for WGS and EC50 determination (Tables S4 and S5). WGS analysis identified two single point mutations in PfATP4 that were not present in the original clonal Dd2 parasite line (Tables and S4). P412L was found in three of four flasks containing 2-selected resistance clones, and F917L was identified in all three flasks containing 3-selected clones and in the fourth flask containing 2-selected clones (Table S4). PfATP4 mutations identified by the WGS analysis in parasite lines were verified by PCR of the pfatp4 gene, followed by Sanger sequencing (Figures S5, S6 and Table S6). An additional protein coding gene (ribosomal protein S8e) was mutated in the 2-selections. However, this mutation was identified in only one of four sequenced clones and is therefore unlikely to be related to resistance to 2 (Figure S7). All three resistant clones derived from the 3-selections harbored an identical mutation in a gene (pfcpu) encoding a conserved protein of unknown function, which was absent in the parental line (Figure S8).
(§2) ABS P. falciparum 3D7, Dd2 or PfNF54^luc parasites (BEI resources) were cultured in RPMI 1640 medium (Millipore Sigma), supplemented with 25 mM HEPES, 0.5% Albumax-I (Thermo Scientific), 23 mM sodium bicarbonate, 92 μM hypoxanthine, and 10 μg/mL gentamicin sulfate at 37 °C, 5% CO2, using deidentified O^+ red blood cells (BioIVT) as previously described. − Growth inhibition assays were conducted in 96 well plate format using the SYBR Green or luciferase reporter assay depending on the strain with modifications as described , (see Supporting Information for a detailed description). Details for the luciferase reporter assay are described below under the BRRoK assay section.
(§3) EC50 and CC50 values were determined by nonlinear regression performed in GraphPad Prism Version 10. Unless otherwise specified, data were fitted to the log(inhibitor) vs response–variable slope with four parameters equation. […] For mutant cell lines and compound combinations where bottom plateau of zero growth was not reached, the bottom of the curve was defined at 0% based on background values obtained for parental Dd2 from the same study.
(§4) Resistant Dd2 parasites were selected using a high-pressure intermittent selection protocol using a previously described method. Selections were set up using 4 flasks per compound starting with approximately 3 × 10^9 parasites per flask (80 mL per flask, 4% hematocrit, 3% parasitemia at the beginning of each pulse, mostly ring-stage parasites via previous sorbitol synchronization. Pulse 1 and 2 (48 h) were conducted at 10xEC50, and subsequent pulses were conducted at 20xEC50. Parasites cleared within 48 h under these conditions. 3-Selections used a total of 4 pulses, while 2-selections required 5 pulses before resistant parasites emerged (Table S3). Culture media was replenished daily for a week after each pulse, then every 2 days with weekly replenishment of blood. Cultures were monitored by microscopy until recrudescence. Clonal parasites were obtained from each flask by limiting dilution and maintained in drug free RPMI-1640 media prior to being analyzed for EC50 shifts. […]

[7] = test system: Dd2 PfATP4^F917L mutant clones; assay: 72 h SYBR Green growth inhibition, 2- or 3-selected Dd2 clones with PfATP4 F917L (Phillips Lab); type: cell-based, Plasmodium falciparum; conditions: for EC50: Plasmodium falciparum
Protocol: as §1, §2, §3, §4

[8] = test system: P. falciparum NF54^luc parasites; assay: Luciferase reporter (LR) / BRRoK assay, PfNF54^luc; type: cell-based; conditions: Plasmodium falciparum, NF54, Hec50, 72 h
physchem = conditions: kinetic from dmso stock
[9] = test system: Pf3D7 trophozoite-stage parasites, cytosolic pH (pHcyt); cell-based assay for ATP4 inhibition; assay: P. falciparum cytosolic dose response pH assay (BCECF, with concanamycin A); conditions: for EC50: Plasmodium falciparum, read-out: Pf3D7 pH EC50
Dd2-B2 (PfATP4^WT) = assay: Drug susceptibility assay for cross-resistance profiling (Fidock Lab), parental line; type: cell-based, Plasmodium falciparum; conditions: for EC50: Plasmodium falciparum
Dd2^L350H (PfATP4^L350H) = assay: Drug susceptibility assay for cross-resistance profiling (Fidock Lab), L350H; type: cell-based, Plasmodium falciparum; conditions: Table 3 data set
Dd2^P412L (PfATP4^P412L) = assay: Drug susceptibility assay for cross-resistance profiling (Fidock Lab), P412L; type: cell-based, Plasmodium falciparum; conditions: Table 3 data set
[10] = test system: isolated Pf3D7 trophozoites, [Na+]cyt; assay: Measurement of P. falciparum cytosolic Na+ concentration (SBFI); type: cell-based, Plasmodium falciparum; conditions: 50 nM
Protocol: Measurements were carried out in 96 well plates (excitation wavelengths: 340 and 380 nm; emission wavelength: 515 nm), as described previously. Fluorescence ratio values (340 nm/380 nm) were converted to [Na^+]cyt using a calibration procedure in which parasites were suspended in solutions of varying [Na^+] containing ionophores.

[11] = DD2, read-out: EC50, 2-resistant Flask 2 Clone F9
[12] = DD2, read-out: EC50, 2-resistant Flask 3 Clone F5
[13] = DD2, read-out: EC50, 2-resistant Flask 4 Clone E10
[14] = DD2, read-out: EC50, 2-selected flask #3 clone F5
[15] = DD2, read-out: EC50, 2-resistant Flask 1 Clone B6
[16] = DD2, read-out: EC50, 3-resistant Flask 2 Clone D10
[17] = DD2, read-out: EC50, 3-resistant Flask 3 Clone D8
[18] = DD2, read-out: EC50, 3-resistant Flask 4 Clone B3
[19] = DD2, read-out: EC50, 3-selected flask #3 clone D8
[20] = Plasmodium falciparum, DD2, 15-selected line

| SMILES | EC50 [1] [µM] | EC50 [2] [µM] | EC50 [6, 11] [µM] | EC50 [6, 12] [µM] | EC50 [6, 13] [µM] | EC50 [6, 14] [µM] | Fold EC50 change compared to WT Dd2, 2-selected flask #3 clone F5 [6] [fold] | EC50 [7, 15] [µM] | EC50 [7, 16] [µM] | EC50 [7, 17] [µM] | EC50 [7, 18] [µM] | EC50 [7, 19] [µM] | Fold EC50 change compared to WT Dd2, 3-selected flask #3 clone D8 [7] [fold] | EC50 [9] [µM] | also measured |
| --- | --- | --- | --- | --- | --- | --- | --- | --- | --- | --- | --- | --- | --- | --- | --- |
| COc1ccc(Cl)cc1NC(=O)Cn1cccc1-c1nnc(C2CC2)o1 [compound 1, N-(5-chloro-2-methoxyphenyl)-2-(2-(5-cyclopropyl-1,3,4-oxadiazol-2-yl)-1H-pyrrol-1-yl)acetamide] | 2.5 ± 0.26 | 2.4 ± 0.13 | 7.5 ± 2.4 | 7.6 ± 2 | 9.4 ± 2.5 | 8.3 ± 1.1 | 3.4 | > 10 | > 10 | > 10 | > 10 | 12 ± 0.46 | 4.6 | 4.5 ± 2 | EC50 [3]: 3 ± 0.93 µM; EC50 [4]: 3.2 ± 0.016 µM; EC50 (PfD10 attB): 2.9 µM; EC50 (PfD10 attB + yDHODH): 3.2 µM; CC50 at 96 h [5]: > 50 µM; microsomal CLint (in vitro): 279 µL/min/mg; EC50 [8]: 1.6 ± 0.075 µM; solubility (physchem; pH 2, simulated gastric fluid): 25 µM (≈ 9.32 µg/mL); solubility (physchem; pH 6.5, aqueous buffer): 12.5 µM (≈ 4.66 µg/mL) |
| C[C@H]1Cc2c([nH]c3cc(Cl)c(F)cc23)[C@@]2(N1)C(=O)Nc1ccc(Cl)cc12 [KAE609, cipargamin, reference compound] | 0.001 ± 3.8e-05 | 0.0012 ± 8.7e-05 | 0.014 ± 0.0014 | 0.012 ± 0.0014 | 0.014 ± 0.0011 | 0.013 ± 0.0011 | 11 | 0.012 ± 0.00098 | 0.012 ± 0.00034 | 0.012 ± 0.00097 | 0.014 ± 0.0009 | 0.012 ± 0.00058 | 11 | 0.003 ± 0.0021 | EC50 (Dd2-B2 (PfATP4^WT); DD2, 72 h, read-out: EC50, Dd2-B2): 0.0013 ± 0.0001 µM; EC50 (Dd2-B2 (PfATP4^WT); DD2, read-out: EC50, Dd2-B2): 0.0021 µM; Fold change, Dd2-B2 (Dd2-B2 (PfATP4^WT); parent, Table S8): 1 fold; EC50 (Dd2^L350H (PfATP4^L350H); [20]): 0.0048 ± 0.0003 µM; EC50 fold-change vs Dd2-B2, Dd2^L350H (Dd2^L350H (PfATP4^L350H)): 3.7 fold and 4- to 6 fold; EC50 (Dd2^P412L (PfATP4^P412L); [20]): 0.011 ± 0.0007 µM; EC50 fold-change vs Dd2-B2, Dd2^P412L (Dd2^P412L (PfATP4^P412L)): 8.5 fold; increase in [Na+]cyt (in words) [10]: increase in [Na^+]cyt; difference between pH EC50 and growth inhibition EC50 ([9]; Pf3D7, 72 h SYBR Green vs pH assay): ≤ 3.2 fold; effect on parasite cytosolic pH (pHcyt) in presence of CMA (in words) ([9]; Pf3D7, CMA 50 nM): increase in pHcyt |
